Data taken from patent US20020028472A1, “Methods for identifying inhibitors of the anaphase promoting complex” (priority 2000, published 2002).

Target: T1, APC11 fused to Maltose Binding Protein (MBP-APC11) (Homo sapiens, UniProt Q9NYG5)
T1 construct: obtained by inserting the APC11 coding region into the commercially available vector pMAL, New England Biolabs; made in house; host or cells: E. coli, grown with 1 mM ZnCl2; purified on amylose resin
Test: FRET assay of APC11-mediated formation of multiubiquitin chains
Assay type: biochemical
Settings: DTT titrated 0 to 30 mM; 60 min at 37° C.; E1 UBA1, E2 HIS-UBCH5b; FRET europium/allophycocyanin

T1 sequence (Q9NYG5 whole entry, the tested form may be a part): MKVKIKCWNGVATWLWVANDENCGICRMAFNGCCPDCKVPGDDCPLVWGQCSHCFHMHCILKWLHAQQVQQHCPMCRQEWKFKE

How did the “inhibition of the APC11-mediated formation of multiubiquitin chains” value turn out when `O[C@H](CS)[C@H](O)CS` (racemic) [DTT, dithiothreitol] was run?
Its value is “inhibition”.
